Measurements reported in paper PMC6926478, “Structures of Respiratory Supercomplex I+III2 Reveal Functional and Conformational Crosstalk” (Molecular Cell, 2019).

Target: T1, SC I+III2 (complex I, NADH/FMN site) (Ovis aries, UniProt Z9LRO2FUZ7)
T1 construct: native supercomplex I+III2 from heart mitochondria, LMNG-extracted, amphipol A8-35 stabilised; complex I has 45 subunits, ~1 MDa; with NADH dehydrogenase [ubiquinone] flavoprotein 2, mitochondrial; NADH-ubiquinone oxidoreductase 75 kDa subunit, mitochondrial; NADH dehydrogenase [ubiquinone] iron-sulfur protein 2, mitochondrial; NADH dehydrogenase [ubiquinone] iron-sulfur protein 7, mitochondrial; NADH-ubiquinone oxidoreductase chain 1; Cytochrome b
Assay: cryoEM structure, […] Å focused map of CI peripheral arm
Type: binding
Conditions: native cofactor

Cc1cc2nc3c(=O)[nH]c(=O)nc-3n(C[C@H](O)[C@H](O)[C@H](O)COP(=O)(O)O)c2cc1C [FMN]
cryoEM structure, 3.8 Å focused map of CI peripheral arm: The FMN, FeS clusters, and heme groups are shown colored by atom
